US20260125382A1, “COMPOUNDS FOR INHIBITING OR DEGRADING CDK2 AND/OR CDK9 AND MEDICINAL USE THEREOF” (KOREA RESEARCH INSTITUTE OF CHEMICAL TECHNOLOGY, priority 2022, published 2026)

How the values were obtained:
CDK2 = molecular target: T1, CDK2 (Homo sapiens, UniProt P24941); assay: CDK protein degradation activity (Western blotting), CDK2; assay type: cell-based; settings: MDA-MB-231 cells, 16 hours, Western blot
T1 construct: endogenous in cells; host or cells: MDA-MB-231
Protocol: (§1) In order to evaluate the CDK protein degradation activity of the compounds according to the present invention, the following experiment was conducted.
(§2) MDA-MB-231 cells were seeded at 5×10^5 cells per well in a 6-well plate. The next day, the compounds were treated in each well to achieve final concentrations of 100 nM, 1 μM, and 10 μM. For the control group, an equal amount of DMSO was treated in the well as the compound. After 16 hours of treatment, cells were collected, and cell lysates were prepared using Triton X-100 lysis buffer (50 mM HEPES, pH 7.5, 40 mM NaCl, 1% Triton X-100, 1 mM EDTA, 1 mM EGTA, 10 mM pyrophosphate, 10 mM β-glycerophosphate, 50 mM NaF, 1 mM NaVO4, protease inhibitor). Cell lysates were quantified and separated by size using sodium dodecyl sulfate-polyacrylamide gel electrophoresis (SDS-PAGE). Western blotting was then performed using antibodies that recognize CDK2, CDK9, and tubulin, respectively. The results obtained by Western blotting were quantitatively analyzed using the ImageJ program, and representative images according to the experimental results are shown in FIG. 1.

CDK9 = molecular target: T2, CDK9 (Homo sapiens, UniProt P50750); assay: CDK protein degradation activity (Western blotting), CDK9; assay type: cell-based; settings: MDA-MB-231 cells, 16 hours, Western blot
T2 construct: endogenous in cells; host or cells: MDA-MB-231
Protocol: as §1, §2

T2 sequence (P50750 whole entry): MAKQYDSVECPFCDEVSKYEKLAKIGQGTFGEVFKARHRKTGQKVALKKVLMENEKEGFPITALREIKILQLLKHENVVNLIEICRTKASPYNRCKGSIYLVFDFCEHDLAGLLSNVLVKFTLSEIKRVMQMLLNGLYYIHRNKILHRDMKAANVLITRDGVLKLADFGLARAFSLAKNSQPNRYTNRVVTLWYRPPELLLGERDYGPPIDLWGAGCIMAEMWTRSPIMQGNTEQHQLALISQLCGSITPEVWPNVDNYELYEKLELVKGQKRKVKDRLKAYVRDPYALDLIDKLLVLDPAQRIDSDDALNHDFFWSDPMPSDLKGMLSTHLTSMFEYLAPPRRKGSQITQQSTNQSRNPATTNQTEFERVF

2,6-dichloro-N-((1s,3s)-3-(6-((4-(4-((4-(1-(2-(2,6-dioxopiperidin-3-yl)-1,3-dioxoisoindolin-5-yl)azetidin-3-carbonyl)piperazin-1-yl)methyl)piperidin-1-yl)phenyl)amino)-9H-purin-9-yl)cyclobutyl)benzamide [Compound 473]
Enzyme degradation CDK2 (% remaining) @ 0.1 μM (CDK2): 20/20/20% | Enzyme degradation CDK2 (% remaining) @ 1 μM (CDK2): 20/20/20% | Enzyme degradation CDK2 (% remaining) @ 10 μM (CDK2): 20/20/20% | Enzyme degradation CDK9 (% remaining) @ 0.1 μM (CDK9): 10/10/10% | Enzyme degradation CDK9 (% remaining) @ 1 μM (CDK9): 10/10/10% | Enzyme degradation CDK9 (% remaining) @ 10 μM (CDK9): 10/10/10%

Cc1cccc(C(=O)N[C@H]2C[C@@H](n3cnc4c(NC5CCN(CCC6CCN(C(=O)CNc7ccc8c(c7)C(=O)N([C@H]7CCC(=O)NC7=O)C8=O)CC6)CC5)ncnc43)C2)n1 (racemic) [Compound 33, N-((1s,3s)-3-(6-((1-(2-(1-((2-(2,6-dioxopiperidin-3-yl)-1,3-dioxoisoindolin-5-yl)glycyl)piperidin-4-yl)ethyl)piperidin-4-yl)amino)-9H-purin-9-yl)cyclobutyl)-6-methylpicolinamide]
Enzyme degradation CDK2 (% remaining) @ 0.1 μM (CDK2): 40% | Enzyme degradation CDK2 (% remaining) @ 1 μM (CDK2): 30% | Enzyme degradation CDK2 (% remaining) @ 10 μM (CDK2): 50% | Enzyme degradation CDK9 (% remaining) @ 0.1 μM (CDK9): 0/0/0% | Enzyme degradation CDK9 (% remaining) @ 1 μM (CDK9): 0/0/0% | Enzyme degradation CDK9 (% remaining) @ 10 μM (CDK9): 0/0/0%

Cc1cccc(C(=O)N[C@H]2C[C@@H](n3cnc4c(NC5CCN(CCCN6CCN(c7ccc8c(c7)C(=O)N([C@H]7CCC(=O)NC7=O)C8=O)CC6)CC5)ncnc43)C2)n1 (racemic) [Compound 41, N-((1s,3s)-3-(6-((1-(3-(4-(2-(2,6-dioxopiperidin-3-yl)-1,3-dioxoisoindolin-5-yl)piperazin-1-yl)propyl)piperidin-4-yl)amino)-9H-purin-9-yl)cyclobutyl)-6-methylpicolinamide]
Enzyme degradation CDK2 (% remaining) @ 0.1 μM (CDK2): 60% | Enzyme degradation CDK2 (% remaining) @ 1 μM (CDK2): 60% | Enzyme degradation CDK2 (% remaining) @ 10 μM (CDK2): 70% | Enzyme degradation CDK9 (% remaining) @ 0.1 μM (CDK9): 0/0/0% | Enzyme degradation CDK9 (% remaining) @ 1 μM (CDK9): 0/0/0% | Enzyme degradation CDK9 (% remaining) @ 10 μM (CDK9): 0/0/0%

O=C1CC[C@H](N2C(=O)c3ccc(NCC(=O)N4CCC(CCCN5CCN(c6ccc(Nc7ncnc8c7ncn8[C@H]7C[C@@H](NC(=O)Cc8ccccc8)C7)cc6)CC5)CC4)cc3C2=O)C(=O)N1 (racemic) [Compound 255, N-((1s,3s)-3-(6-((4-(4-(3-(1-((2-(2,6-dioxopiperidin-3-yl)-1,3-dioxoisoindolin-5-yl)glycyl)piperidin-4-yl)propyl)piperazin-1-yl)phenyl)amino)-9H-purin-9-yl)cyclobutyl)-2-phenylacetamide]
Enzyme degradation CDK2 (% remaining) @ 0.1 μM (CDK2): 30/30/30% | Enzyme degradation CDK2 (% remaining) @ 1 μM (CDK2): 30/30/30% | Enzyme degradation CDK2 (% remaining) @ 10 μM (CDK2): 30/30/30% | Enzyme degradation CDK9 (% remaining) @ 0.1 μM (CDK9): 0/0/0% | Enzyme degradation CDK9 (% remaining) @ 1 μM (CDK9): 0/0/0% | Enzyme degradation CDK9 (% remaining) @ 10 μM (CDK9): 0/0/0%

O=C1CC[C@H](N2C(=O)c3ccc(NCC(=O)N4CCC5(CC4)CC(N4CCC(c6ccc(Nc7ncnc8c7ncn8[C@H]7C[C@@H](NC(=O)Cc8ccccc8)C7)cc6)CC4)C5)cc3C2=O)C(=O)N1 (racemic) [Compound 296, N-((1s,3s)-3-(6-((4-(1-(7-((2-(2,6-dioxopiperidin-3-yl)-1,3-dioxoisoindolin-5-yl)glycyl)-7-azaspiro[3.5]nonan-2-yl)piperidin-4-yl)phenyl)amino)-9H-purin-9-yl)cyclobutyl)-2-phenylacetamide]
Enzyme degradation CDK2 (% remaining) @ 0.1 μM (CDK2): 20% | Enzyme degradation CDK2 (% remaining) @ 1 μM (CDK2): 0% | Enzyme degradation CDK2 (% remaining) @ 10 μM (CDK2): 0% | Enzyme degradation CDK9 (% remaining) @ 0.1 μM (CDK9): 0/0/0% | Enzyme degradation CDK9 (% remaining) @ 1 μM (CDK9): 0/0/0% | Enzyme degradation CDK9 (% remaining) @ 10 μM (CDK9): 0/0/0%

Cc1cccc(C(=O)N[C@H]2C[C@@H](n3cnc4c(NCCC5CCN(CC6CCN(C(=O)CCNc7ccc8c(c7)C(=O)N([C@H]7CCC(=O)NC7=O)C8=O)CC6)CC5)ncnc43)C2)n1 (racemic) [Compound 310, N-((1s,3s)-3-(6-((2-(1-((1-(3-((2-(2,6-dioxopiperidin-3-yl)-1,3-dioxoisoindolin-5-yl)amino)propanoyl)piperidin-4-yl)methyl)piperidin-4-yl)ethyl)amino)-9H-purin-9-yl)cyclobutyl)-6-methylpicolinamide]
Enzyme degradation CDK2 (% remaining) @ 0.1 μM (CDK2): 100% | Enzyme degradation CDK2 (% remaining) @ 1 μM (CDK2): 70% | Enzyme degradation CDK2 (% remaining) @ 10 μM (CDK2): 100% | Enzyme degradation CDK9 (% remaining) @ 0.1 μM (CDK9): 40% | Enzyme degradation CDK9 (% remaining) @ 1 μM (CDK9): 0% | Enzyme degradation CDK9 (% remaining) @ 10 μM (CDK9): 0%

N#Cc1cccc(C(=O)N[C@H]2C[C@@H](n3cnc4c(Nc5ccc(N6CCN(CC7CCN(c8ccc9nnn([C@H]%10CCC(=O)NC%10=O)c(=O)c9c8)CC7)CC6)cc5)ncnc43)C2)n1 (racemic) [Compound 418, 6-cyano-N-((1s,3s)-3-(6-((4-(4-((1-(3-(2,6-dioxopiperidin-3-yl)-4-oxo-3,4-dihydrobenzo[d][1,2,3]triazin-6-yl)piperidin-4-yl)methyl)piperazin-1-yl)phenyl)amino)-9H-purin-9-yl)cyclobutyl)picolinamide]
Enzyme degradation CDK2 (% remaining) @ 0.1 μM (CDK2): 10/10/10% | Enzyme degradation CDK2 (% remaining) @ 1 μM (CDK2): 10/10/10% | Enzyme degradation CDK2 (% remaining) @ 10 μM (CDK2): 10/10/10% | Enzyme degradation CDK9 (% remaining) @ 0.1 μM (CDK9): 0/0/0% | Enzyme degradation CDK9 (% remaining) @ 1 μM (CDK9): 0/0/0% | Enzyme degradation CDK9 (% remaining) @ 10 μM (CDK9): 0/0/0%

Cc1cccc(C(=O)N[C@H]2C[C@@H](n3cnc4c(NC5CCN(CCCCCCNc6ccc7c(c6)C(=O)N([C@H]6CCC(=O)NC6=O)C7=O)CC5)ncnc43)C2)n1 [Compound 17, N-((1s,3s)-3-(6-((1-(6-((2-(2,6-dioxopiperidin-3-yl)-1,3-dioxoisoindolin-5-yl)amino)hexyl)piperidin-4-yl)amino)-9H-purin-9-yl)cyclobutyl)-6-methylpicolinamide]
Enzyme degradation CDK2 (% remaining) @ 0.1 μM (CDK2): 90% | Enzyme degradation CDK2 (% remaining) @ 1 μM (CDK2): 100% | Enzyme degradation CDK2 (% remaining) @ 10 μM (CDK2): 50% | Enzyme degradation CDK9 (% remaining) @ 0.1 μM (CDK9): 10% | Enzyme degradation CDK9 (% remaining) @ 1 μM (CDK9): 0% | Enzyme degradation CDK9 (% remaining) @ 10 μM (CDK9): 0%

Cc1cccc(C(=O)N[C@H]2C[C@@H](n3cnc4c(NC5CCN(CC6CCN(C(=O)CNc7ccc8c(c7)C(=O)N([C@H]7CCC(=O)NC7=O)C8=O)CC6)CC5)ncnc43)C2)n1 [Compound 25, N-((1s,3s)-3-(6-((1-((1-((2-(2,6-dioxopiperidin-3-yl)-1,3-dioxoisoindolin-5-yl)glycyl)piperidin-4-yl)methyl)piperidin-4-yl)amino)-9H-purin-9-yl)cyclobutyl)-6-methylpicolinamide]
Enzyme degradation CDK2 (% remaining) @ 0.1 μM (CDK2): 20% | Enzyme degradation CDK2 (% remaining) @ 1 μM (CDK2): 20% | Enzyme degradation CDK2 (% remaining) @ 10 μM (CDK2): 30% | Enzyme degradation CDK9 (% remaining) @ 0.1 μM (CDK9): 0/0/0% | Enzyme degradation CDK9 (% remaining) @ 1 μM (CDK9): 0/0/0% | Enzyme degradation CDK9 (% remaining) @ 10 μM (CDK9): 0/0/0%

Cc1cccc(C(=O)N[C@H]2C[C@@H](n3cnc4c(NC5CCN(CCC6CCN(C(=O)COc7ccc8c(c7)C(=O)N(C7CCC(=O)NC7=O)C8=O)CC6)CC5)ncnc43)C2)n1 (stereo partly drawn) [Compound 31, N-((1s,3s)-3-(6-((1-(2-(1-(2-((2-(2,6-dioxopiperidin-3-yl)-1,3-dioxoisoindolin-5-yl)oxy)acetyl)piperidin-4-yl)ethyl)piperidin-4-yl)amino)-9H-purin-9-yl)cyclobutyl)-6-methylpicolinamide]
Enzyme degradation CDK2 (% remaining) @ 0.1 μM (CDK2): 70% | Enzyme degradation CDK2 (% remaining) @ 1 μM (CDK2): 40% | Enzyme degradation CDK2 (% remaining) @ 10 μM (CDK2): 30% | Enzyme degradation CDK9 (% remaining) @ 0.1 μM (CDK9): 10% | Enzyme degradation CDK9 (% remaining) @ 1 μM (CDK9): 0% | Enzyme degradation CDK9 (% remaining) @ 10 μM (CDK9): 0%

Cc1cccc(C(=O)NC2CC(n3cnc4c(NC5CCN(CCC6CCN(C(=O)COc7cccc8c7C(=O)N([C@H]7CCC(=O)NC7=O)C8=O)CC6)CC5)ncnc43)C2)n1 (stereo partly drawn) [Compound 32, N-((1s,3s)-3-(6-((1-(2-(1-(2-((2-(2,6-dioxopiperidin-3-yl)-1,3-dioxoisoindolin-4-yl)oxy)acetyl)piperidin-4-yl)ethyl)piperidin-4-yl)amino)-9H-purin-9-yl)cyclobutyl)-6-methylpicolinamide]
Enzyme degradation CDK2 (% remaining) @ 0.1 μM (CDK2): 60% | Enzyme degradation CDK2 (% remaining) @ 1 μM (CDK2): 20% | Enzyme degradation CDK2 (% remaining) @ 10 μM (CDK2): 20% | Enzyme degradation CDK9 (% remaining) @ 0.1 μM (CDK9): 50% | Enzyme degradation CDK9 (% remaining) @ 1 μM (CDK9): 0% | Enzyme degradation CDK9 (% remaining) @ 10 μM (CDK9): 0%

Cc1cccc(C(=O)N[C@H]2C[C@@H](n3cnc4c(NC5CCN(CCC6CCN(C(=O)CNc7cccc8c7C(=O)N(C7CCC(=O)NC7=O)C8=O)CC6)CC5)ncnc43)C2)n1 (stereo partly drawn) [Compound 34, N-((1s,3s)-3-(6-((1-(2-(1-((2-(2,6-dioxopiperidin-3-yl)-1,3-dioxoisoindolin-4-yl)glycyl)piperidin-4-yl)ethyl)piperidin-4-yl)amino)-9H-purin-9-yl)cyclobutyl)-6-methylpicolinamide]
Enzyme degradation CDK2 (% remaining) @ 0.1 μM (CDK2): 50% | Enzyme degradation CDK2 (% remaining) @ 1 μM (CDK2): 50% | Enzyme degradation CDK2 (% remaining) @ 10 μM (CDK2): 100% | Enzyme degradation CDK9 (% remaining) @ 0.1 μM (CDK9): 0% | Enzyme degradation CDK9 (% remaining) @ 1 μM (CDK9): 0% | Enzyme degradation CDK9 (% remaining) @ 10 μM (CDK9): 10%
